From US20240208979A1, “sGC STIMULATORS” (Tisento Therapeutics Inc., priority 2021, published 2024) come the findings set out here.

Usually EC50 stands for the concentration that produces a half-maximal response.

One test concerns the target T1, human α2β1 sGC isozyme (Homo sapiens, UniProt P33402+Q02153).
T1 construct: host or cells: CHO-K1
T1 sequence (P33402 1-732): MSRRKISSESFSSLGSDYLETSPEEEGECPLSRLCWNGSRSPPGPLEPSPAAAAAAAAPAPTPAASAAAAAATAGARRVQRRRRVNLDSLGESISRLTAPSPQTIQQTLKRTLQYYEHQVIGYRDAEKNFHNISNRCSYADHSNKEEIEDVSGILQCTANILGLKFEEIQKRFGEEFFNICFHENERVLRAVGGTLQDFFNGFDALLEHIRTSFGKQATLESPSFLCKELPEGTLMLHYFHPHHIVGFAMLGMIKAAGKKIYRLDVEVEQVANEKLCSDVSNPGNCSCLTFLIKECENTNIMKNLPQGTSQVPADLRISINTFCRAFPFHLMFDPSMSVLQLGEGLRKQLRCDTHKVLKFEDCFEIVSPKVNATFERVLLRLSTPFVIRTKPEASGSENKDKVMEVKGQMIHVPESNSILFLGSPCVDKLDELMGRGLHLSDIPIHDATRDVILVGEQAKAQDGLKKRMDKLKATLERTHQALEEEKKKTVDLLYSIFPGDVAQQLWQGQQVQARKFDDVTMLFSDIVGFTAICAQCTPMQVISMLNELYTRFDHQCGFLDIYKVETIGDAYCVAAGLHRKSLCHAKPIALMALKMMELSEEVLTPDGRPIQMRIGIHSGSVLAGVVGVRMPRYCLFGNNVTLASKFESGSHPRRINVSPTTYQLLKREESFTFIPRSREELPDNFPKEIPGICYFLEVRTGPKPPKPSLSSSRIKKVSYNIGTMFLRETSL
T1 sequence (Q02153 1-619): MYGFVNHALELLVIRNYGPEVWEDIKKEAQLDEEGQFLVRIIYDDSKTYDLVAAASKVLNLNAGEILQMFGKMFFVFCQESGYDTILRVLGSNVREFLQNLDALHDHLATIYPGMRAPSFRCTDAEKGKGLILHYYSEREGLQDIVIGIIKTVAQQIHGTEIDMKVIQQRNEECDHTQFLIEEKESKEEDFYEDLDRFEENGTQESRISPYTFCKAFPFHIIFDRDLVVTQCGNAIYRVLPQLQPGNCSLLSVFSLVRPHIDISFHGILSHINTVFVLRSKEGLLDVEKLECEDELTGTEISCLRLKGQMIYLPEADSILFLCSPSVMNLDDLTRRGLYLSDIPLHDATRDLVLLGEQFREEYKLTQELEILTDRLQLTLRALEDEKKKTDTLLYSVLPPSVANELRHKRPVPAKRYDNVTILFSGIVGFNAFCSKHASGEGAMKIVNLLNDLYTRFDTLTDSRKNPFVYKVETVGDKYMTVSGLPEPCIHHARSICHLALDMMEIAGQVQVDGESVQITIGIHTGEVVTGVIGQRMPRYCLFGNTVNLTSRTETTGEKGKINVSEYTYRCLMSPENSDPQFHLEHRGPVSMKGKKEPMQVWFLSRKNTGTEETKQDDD
The test is described as follows: cGMP assay on human α2β1 sGC isozyme stably expressed in CHO-K1 cells. It is filed as cell-based. Conditions: 10 μM DETA-NONOate, 20 min, cGMP content, geometrical mean. Here is the method:
sGC stimulators were dissolved in DMSO as a 10 mM solution and stored at −20° C. To achieve desired test concentrations, stock concentrations were serially diluted into DMSO and then diluted to the appropriate concentration in assay buffer.
CHO-K1 cells stably transfected with human α2β1 sGC isozyme (generated by GenScript for Ironwood) were cultured in F-12K medium (ATCC catalog #30-2004) with 10% fetal calf serum, 4 μg/mL puromycin (Gibco catalog #A11138-03) and 0.4 mg/mL of geneticin (Gibco catalog #10131-027) in a 95% humidified atmosphere containing 5% CO2 in air at 37° C. For GC activity assays, cells were seeded in 384 well poly-D-lysine coated flat bottom plates (Fisher Scientific #08-774-311) in either 50 μL or 70 μL medium at a density of either 3×10^4 cells/well or 15×10^3, respectively. Cells were incubated for 24 hours at 37° C. in a humidified chamber supplemented with 5% CO2. […]
Following incubation with compound, assay buffer was removed and 50 μL of ice-cold 10% acetic acid+150 ng/mL internal standard (+3 cGMP) was added to each well. […] Following centrifugation at 4° C. for 5 min at 1000×g to pellet cell debris, the supernatant was transferred to a clean plate and the samples analyzed for cGMP content.
Data were analyzed with a 4-parameter fit (log(agonist) vs. response—variable slope) using GraphPad Prism Software v.8. […]

The next test relates to normotensive rats. Briefly: Blood pressure effects in normotensive rats following acute oral dose. Format: in vivo, rat. Conditions: Milli-Q water. Here is the method:
Male, normotensive Sprague Dawley rats were purchased from Charles River Laboratories. These rats have indwelling femoral artery catheters installed. Animals were harnessed to a tether system and attached to pressure transducers to monitor cardiovascular (CV) parameters, specifically mean arterial pressure (MAP) and heart rate (HR). Animals were acclimated to the system overnight and baseline CV parameters collected. The conscious, freely moving rats were then administered a single oral dose of the Compound I-14 (doses generated from the sodium salt of Compound 14) in Milli-Q water at 1, 3, 10 and 30 mg/kg. A blood sample was collected from each animal through the catheter line at pre-dose and 2 hours post-dose for compound concentration quantification. Hemodynamic measures were recorded for ten hours post-dose. […]
ADInstruments LabChart (v8) was used to monitor and export hemodynamic data. Blood pressure and heart rate were continuously monitored, and data were collected at 1000 data points per second then averaged into 10-minute bins for analysis. Change from baseline MAP (ΔBMAP) and HR (ΔBHR) were calculated using the pre-dose baseline averaged over the 1-hr period prior to dosing using Microsoft Excel for Microsoft 365. […]
Statistical analyses were performed in Graphpad Prism (v8). […] Vehicle-adjusted HR (ΔVHR) was calculated in a similar manner to ΔVMAP. […]

`Cc1cc(F)c(Cc2nc(-c3ncc(F)c(O)n3)cn3ccnc23)cc1F` [Compound I-14, 5-fluoro-2-(8-(2,5-difluoro-4-methylbenzyl)imidazo[1,2-a]pyrazin-6-yl)pyrimidin-4-ol]: the EC50 on human α2β1 sGC isozyme is not above 100 nM. For the same compound, in the test on normotensive rats (3, 10, and 30 mg/kg single oral dose), the “effect on MAP from baseline and as adjusted from vehicle” value is listed as “lowered MAP”. In addition, the “change from baseline MAP (ΔBMAP) compared with vehicle-treated rats” value in the test on normotensive rats (single oral dose 1, 3, 10 and 30 mg/kg, 2-way ANOVA significant) was “greater decrease in MAP”.
